Assay results published in patent US8158389B2, “Products and methods for in vivo secretion of monatin” (priority 2005, dated 2012).
Values joined by “and” are separate entries in the source; they are usually repeats but may differ in a detail not shown here. Equal values may be shown once.

Molecular target: T1, AcrAB efflux pump (Escherichia coli, UniProt P31224)
T1 construct: endogenous in cells; host or cells: E. coli BL21 (DE3) with aspCproApET32 plus pProNde with or without tolC
Experiment: Monatin excretion with 2.5 mM sodium decanoate treatment, strains with or without tolC overexpression
Type: cell-based
Conditions: for Monatin/dry cell weight, 25 hr average / Monatin/dry cell weight, 50 hr average: n = 2
Description: Strains used for the experiment included E. coli BL21 (DE3) : : aspCproApET32 and tolC pProNde or pProNde without tolC. For inoculum, the E. coli strains were grown overnight at 37° C. and 250 rpm in Luria-Bertani (“LB”) medium with 100 μg/mL ampicillin and 50 μg/mL kanamycin.
For the experimental treatments, Trp-1+glucose medium, a minimal medium that has been used for increased production of tryptophan in E. coli cells (Zeman, et al. Folia Microbiol. 35:200-204, (1990)), was prepared as follows. To 800 mL nanopure water the following reagents were added: 2 g (NH4)2SO4 and 13.6 g KE2PO4. The pH was adjusted to 7.0, the volume was increased to 948 mL, and the medium was autoclaved. Following sterilization, 0.2 g MgSO4.7H2O, 0.01 g CaCl2.2H2O, and 0.5 mg FeSO4.7H2O were added to the medium in a 1.8 mL volume followed by addition of 0.2 mL of Neidhardt's micronutrient solution. Neidhardt, F. C., et al., “Culture medium for Enterobacteria,” J. Bacteriol. 119:736-746, (1974). Neidhardt's medium includes (per liter): 0.18 g (NH4)6(MO7)24-4H2O, 1.24 g H3BO3, 0.36 g CoCl2.6H2O, 0.12 g CuSO4 (anhydrous), 0.8 g MnCl2.4H2O, and 0.14 g ZnSO4.7H2O. A 50% glucose solution was prepared separately and sterile-filtered. Forty mL of glucose solution and 10 mL of 1 M 3-Morpholinopropanesulfonic acid (“MOPS”) buffer were added to the base medium (950 mL) for a 1 L final volume.
Conditions for the treatments included 30° C. throughout the experiment and 250 rpm agitation. At 0.4 OD600 nm, induction of the plasmid genes was initiated. At induction, 0.5 mM IPTG, 0.5% arabinose, 0.5 mM pyridoxine hydrochloride, and 0.2 mL of Balch's vitamins (Balch, W. E., et al., “Methanogens: reevaluation of a unique biological group,” Microbiol. Rev. 43:260-296, (1979)) were added. […] Some treatments included 2.5 mM sodium decanoate addition at 3 hours following induction.
The amount of monatin excreted was determined using the method described in Example 13.
In this example, the combination of induction of the AcrAB efflux pump with increased availability of the TolC channels was evaluated. E. coli strains overexpressing the tolC gene were additionally subjected to treatment with 2.5 mM sodium decanoate to simultaneously induce the AcrAB pumps.

[1] = E. coli BL21 DE3 aspC proApET32 & pProNde w/o tolC (control)
[2] = E. coli BL21 DE3 aspC proApET32 & tolCpProNde

T1 sequence (P0AE06 25-397): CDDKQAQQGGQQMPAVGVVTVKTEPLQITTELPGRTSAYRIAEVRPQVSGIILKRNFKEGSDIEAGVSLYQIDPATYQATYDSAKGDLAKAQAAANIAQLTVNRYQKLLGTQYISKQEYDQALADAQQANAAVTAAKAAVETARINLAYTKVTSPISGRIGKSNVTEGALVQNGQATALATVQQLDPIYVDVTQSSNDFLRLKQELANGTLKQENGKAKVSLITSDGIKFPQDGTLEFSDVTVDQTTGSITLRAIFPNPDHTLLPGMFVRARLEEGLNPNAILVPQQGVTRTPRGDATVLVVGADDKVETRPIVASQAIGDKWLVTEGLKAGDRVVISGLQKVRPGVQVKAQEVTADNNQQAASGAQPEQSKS
T1 sequence (P02930 23-493, further chain): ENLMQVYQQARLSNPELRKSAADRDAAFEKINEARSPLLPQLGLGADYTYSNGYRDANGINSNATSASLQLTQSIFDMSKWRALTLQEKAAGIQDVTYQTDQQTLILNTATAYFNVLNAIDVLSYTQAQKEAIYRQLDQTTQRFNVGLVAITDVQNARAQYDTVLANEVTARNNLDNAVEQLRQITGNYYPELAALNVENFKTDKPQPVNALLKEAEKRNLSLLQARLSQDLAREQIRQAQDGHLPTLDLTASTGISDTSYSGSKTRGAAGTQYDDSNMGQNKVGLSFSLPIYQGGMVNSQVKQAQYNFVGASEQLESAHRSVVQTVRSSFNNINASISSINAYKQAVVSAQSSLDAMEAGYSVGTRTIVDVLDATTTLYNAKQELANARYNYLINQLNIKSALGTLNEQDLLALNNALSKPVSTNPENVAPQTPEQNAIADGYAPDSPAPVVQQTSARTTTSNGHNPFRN
T1 sequence (P31224 whole entry): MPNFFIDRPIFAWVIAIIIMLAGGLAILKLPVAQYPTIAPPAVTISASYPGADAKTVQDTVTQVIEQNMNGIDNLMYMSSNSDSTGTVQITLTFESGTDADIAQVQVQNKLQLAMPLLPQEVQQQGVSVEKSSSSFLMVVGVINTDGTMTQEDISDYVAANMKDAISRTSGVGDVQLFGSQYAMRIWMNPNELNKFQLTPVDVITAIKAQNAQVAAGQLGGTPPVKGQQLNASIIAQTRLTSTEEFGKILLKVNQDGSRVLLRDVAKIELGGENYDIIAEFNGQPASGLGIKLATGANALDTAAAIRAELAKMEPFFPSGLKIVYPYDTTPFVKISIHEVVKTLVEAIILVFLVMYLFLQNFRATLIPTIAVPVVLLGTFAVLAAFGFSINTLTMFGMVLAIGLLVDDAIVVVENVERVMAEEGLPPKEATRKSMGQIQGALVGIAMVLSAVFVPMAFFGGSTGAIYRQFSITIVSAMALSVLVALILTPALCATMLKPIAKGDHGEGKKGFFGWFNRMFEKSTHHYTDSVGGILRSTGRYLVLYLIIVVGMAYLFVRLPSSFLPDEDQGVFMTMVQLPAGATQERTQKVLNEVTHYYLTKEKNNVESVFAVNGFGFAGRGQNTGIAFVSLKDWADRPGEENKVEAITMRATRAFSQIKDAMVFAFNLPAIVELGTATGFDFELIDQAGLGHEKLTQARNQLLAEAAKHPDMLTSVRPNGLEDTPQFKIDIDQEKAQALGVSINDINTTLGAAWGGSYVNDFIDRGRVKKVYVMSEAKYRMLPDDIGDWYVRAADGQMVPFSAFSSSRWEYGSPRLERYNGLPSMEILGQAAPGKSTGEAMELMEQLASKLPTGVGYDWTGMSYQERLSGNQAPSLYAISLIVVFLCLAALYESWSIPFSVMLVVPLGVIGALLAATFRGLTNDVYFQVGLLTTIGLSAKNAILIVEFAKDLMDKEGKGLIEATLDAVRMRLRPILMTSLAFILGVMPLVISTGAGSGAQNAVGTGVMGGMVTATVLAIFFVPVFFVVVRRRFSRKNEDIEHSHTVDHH

CCCCCCCCCC(=O)[O-].[Na+] [sodium decanoate]
Monatin/dry cell weight, 25 hr [1]: 0.19 mg monatin/g dcw and 0.17 mg monatin/g dcw | Monatin/dry cell weight, 50 hr [1]: 0.09 mg monatin/g dcw and 0.11 mg monatin/g dcw | Monatin/dry cell weight, 25 hr [2]: 8.88 mg monatin/g dcw and 12.19 mg monatin/g dcw | Monatin/dry cell weight, 50 hr [2]: 7.99 mg monatin/g dcw and 10.23 mg monatin/g dcw | Monatin/dry cell weight, 25 hr average (pProNde w/o tolC (control)): 0.18 mg monatin/g dcw | Monatin/dry cell weight, 50 hr average (pProNde w/o tolC (control)): 0.10 mg monatin/g dcw | Monatin/dry cell weight, 25 hr average (tolCpProNde): 10.53 mg monatin/g dcw | Monatin/dry cell weight, 50 hr average (tolCpProNde): 9.11 mg monatin/g dcw
